Measurements from the NIST ThermoML archive (doi:10.1016/j.fluid.2004.09.013).

Details: for mass density: Fluid (supercritical or subcritical phases), Vibrating tube method

C=CCC [1-butene]
Details | Critical density [kg/m3] | mass density [kg/m3]
453.25 K, 9992 kPa | – | 366.88
458.24 K, 5019 kPa | – | 127.66
458.24 K, 14983 kPa | – | 409.67
458.24 K, 20004 kPa | – | 440.23
458.24 K, 29989 kPa | – | 478.1
458.24 K, 34985 kPa | – | 491.83
458.24 K, 39994 kPa | – | 503.63
458.25 K, 9993 kPa | – | 354.52
458.25 K, 25009 kPa | – | 461.51
463.24 K, 5016 kPa | – | 120.75
463.24 K, 14996 kPa | – | 401.9
463.24 K, 19997 kPa | – | 433.9
463.24 K, 25004 kPa | – | 456.08
463.24 K, 30003 kPa | – | 473.27
463.24 K, 34993 kPa | – | 487.39
463.25 K, 9983 kPa | – | 341.52
463.25 K, 39998 kPa | – | 499.47
468.24 K, 5016 kPa | – | 115
468.24 K, 9989 kPa | – | 328.56
468.24 K, 14982 kPa | – | 393.76
468.24 K, 19984 kPa | – | 427.48
468.24 K, 24997 kPa | – | 450.6
468.24 K, 30000 kPa | – | 468.38
468.24 K, 35011 kPa | – | 482.95
468.24 K, 39999 kPa | – | 495.31
473.24 K, 5018 kPa | – | 110.27
473.24 K, 9985 kPa | – | 315.25
473.24 K, 19988 kPa | – | 421.13
473.24 K, 24992 kPa | – | 445.14
473.24 K, 29997 kPa | – | 463.51
473.24 K, 35002 kPa | – | 478.49
473.24 K, 39996 kPa | – | 491.17
473.25 K, 14995 kPa | – | 385.74
478.24 K, 5019 kPa | – | 106.11
478.24 K, 9987 kPa | – | 302.04
478.24 K, 14989 kPa | – | 377.47
478.24 K, 19983 kPa | – | 414.69
478.24 K, 24987 kPa | – | 439.66
478.24 K, 30006 kPa | – | 458.68
478.24 K, 35011 kPa | – | 474.08
478.24 K, 39998 kPa | – | 487.02
483.24 K, 5019 kPa | – | 102.43
483.24 K, 9986 kPa | – | 289.02
483.24 K, 14996 kPa | – | 369.24
483.24 K, 19994 kPa | – | 408.37
483.24 K, 24993 kPa | – | 434.22
483.24 K, 30007 kPa | – | 453.8
483.24 K, 35009 kPa | – | 469.63
483.24 K, 39997 kPa | – | 482.92
488.24 K, 5019 kPa | – | 99.18
488.24 K, 9991 kPa | – | 276.55
488.24 K, 14995 kPa | – | 361.05
488.24 K, 20003 kPa | – | 402.02
488.24 K, 24984 kPa | – | 428.73
488.24 K, 29996 kPa | – | 448.96
488.24 K, 35002 kPa | – | 465.2
488.24 K, 39995 kPa | – | 478.82
493.24 K, 5019 kPa | – | 96.24
493.24 K, 9993 kPa | – | 264.66
493.24 K, 14985 kPa | – | 352.7
493.24 K, 19990 kPa | – | 395.6
493.24 K, 24997 kPa | – | 423.36
493.24 K, 30000 kPa | – | 444.14
493.24 K, 35000 kPa | – | 460.8
493.24 K, 39994 kPa | – | 474.74
498.24 K, 5019 kPa | – | 93.59
498.24 K, 9985 kPa | – | 253.12
498.24 K, 14988 kPa | – | 344.51
498.24 K, 19988 kPa | – | 389.08
498.24 K, 25004 kPa | – | 417.97
498.24 K, 30000 kPa | – | 439.33
498.24 K, 35005 kPa | – | 456.43
498.24 K, 39995 kPa | – | 470.68
503.24 K, 5016 kPa | – | 91.1
503.24 K, 9996 kPa | – | 242.88
503.24 K, 14997 kPa | – | 336.49
503.24 K, 19985 kPa | – | 382.45
503.24 K, 25003 kPa | – | 412.55
503.24 K, 29994 kPa | – | 434.51
503.24 K, 34998 kPa | – | 452.04
503.24 K, 39994 kPa | – | 466.64
508.24 K, 5019 kPa | – | 88.94
508.24 K, 9985 kPa | – | 232.83
508.24 K, 14995 kPa | – | 328.41
508.24 K, 20001 kPa | – | 376.3
508.24 K, 25001 kPa | – | 407.17
508.24 K, 29985 kPa | – | 429.72
508.24 K, 34995 kPa | – | 447.71
508.24 K, 39994 kPa | – | 462.63
513.23 K, 19985 kPa | – | 369.92
513.23 K, 35000 kPa | – | 443.43
513.24 K, 5019 kPa | – | 86.9
513.24 K, 9990 kPa | – | 224.06
513.24 K, 14981 kPa | – | 320.32
513.24 K, 24995 kPa | – | 401.8
513.24 K, 30001 kPa | – | 425.05
513.24 K, 39991 kPa | – | 458.64
518.23 K, 5019 kPa | – | 85.01
518.23 K, 14997 kPa | – | 312.76
518.23 K, 19988 kPa | – | 363.73
518.23 K, 25002 kPa | – | 396.53
518.23 K, 30001 kPa | – | 420.37
518.23 K, 35013 kPa | – | 439.18
518.24 K, 9981 kPa | – | 215.7
518.24 K, 39995 kPa | – | 454.74
523.23 K, 5018 kPa | – | 83.27
523.23 K, 9990 kPa | – | 208.53
523.23 K, 14996 kPa | – | 305.24
523.23 K, 19995 kPa | – | 357.64
523.23 K, 25003 kPa | – | 391.29
523.23 K, 30001 kPa | – | 415.71
523.23 K, 35000 kPa | – | 434.96
523.23 K, 40001 kPa | – | 450.86
Liquid, visual observation in a variable volume cell:FP | 237.88 | –

Liquid
Details | Critical pressure [kPa] | Critical temperature [K]
– | 4005.1 | 419.29
